Where two headings read alike, the source gives them in different places.

One series concerns the target FGF-R2 (Homo sapiens, UniProt P21802). The series can be described thus: single-point (1 uM) inhibition assay (ProQinase Kinase Profiler). It counts as biochemical. The settings on record: read-out: % residual activity class (FIG. 3).
Another series relates to K562 CML cells. The settings on record: cited from earlier work.
The conditions of series [1]: cited from earlier work.
Another series deals with hERG potassium channel (Homo sapiens, UniProt Q12809). The conditions noted are these: page 31, NDA 21-986, cited from earlier work.
Chain of hERG potassium channel (Q12809 whole entry): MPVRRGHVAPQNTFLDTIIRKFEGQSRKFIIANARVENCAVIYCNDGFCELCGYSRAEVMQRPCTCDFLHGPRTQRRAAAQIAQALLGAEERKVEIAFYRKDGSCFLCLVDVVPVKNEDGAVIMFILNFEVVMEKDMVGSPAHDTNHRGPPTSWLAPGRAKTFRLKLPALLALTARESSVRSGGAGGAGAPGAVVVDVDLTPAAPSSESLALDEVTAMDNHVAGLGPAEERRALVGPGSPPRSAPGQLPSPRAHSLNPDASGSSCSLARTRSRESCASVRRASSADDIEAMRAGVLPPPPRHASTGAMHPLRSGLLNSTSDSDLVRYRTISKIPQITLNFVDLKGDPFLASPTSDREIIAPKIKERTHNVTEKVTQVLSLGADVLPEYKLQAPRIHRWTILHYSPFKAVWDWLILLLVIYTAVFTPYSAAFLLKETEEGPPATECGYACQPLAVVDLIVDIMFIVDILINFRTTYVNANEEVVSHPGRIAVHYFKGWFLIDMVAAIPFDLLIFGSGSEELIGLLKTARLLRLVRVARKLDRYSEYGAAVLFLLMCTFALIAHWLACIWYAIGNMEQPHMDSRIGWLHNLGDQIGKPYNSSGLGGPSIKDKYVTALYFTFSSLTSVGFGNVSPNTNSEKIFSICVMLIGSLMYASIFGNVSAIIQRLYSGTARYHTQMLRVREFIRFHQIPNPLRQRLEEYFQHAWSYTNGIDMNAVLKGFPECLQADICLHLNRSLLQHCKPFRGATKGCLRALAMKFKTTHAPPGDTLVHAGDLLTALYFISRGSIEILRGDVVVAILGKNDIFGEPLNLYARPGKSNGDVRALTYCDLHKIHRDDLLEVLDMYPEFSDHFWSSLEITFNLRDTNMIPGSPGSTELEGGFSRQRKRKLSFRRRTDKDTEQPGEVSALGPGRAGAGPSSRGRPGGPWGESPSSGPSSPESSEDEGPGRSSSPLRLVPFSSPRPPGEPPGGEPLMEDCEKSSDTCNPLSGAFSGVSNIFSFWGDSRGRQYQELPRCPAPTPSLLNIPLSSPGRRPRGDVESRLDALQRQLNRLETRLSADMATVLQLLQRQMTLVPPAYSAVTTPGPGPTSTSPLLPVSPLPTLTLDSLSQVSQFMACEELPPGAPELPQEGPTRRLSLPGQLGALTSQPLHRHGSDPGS
A further series concerns the target ACV-R2B (Homo sapiens, UniProt Q13705). Put plainly: biochemical. The conditions noted are these: read-out: % residual activity class (FIG. 3).
Another series has as its system KU812 tumours. The conditions noted are these: large KU812 tumours (up to >1 g); 50 mg/kg/day for 5 days; cited from earlier work.
For a further series, the target named is ERBB2 (Homo sapiens, UniProt P04626). Put plainly: single-point (1 uM) inhibition assay (ProQinase Kinase Profiler). The series is classed as biochemical. The settings on record: read-out: % residual activity class (FIG. 3).
The target of another series is EPHA6 (Homo sapiens, UniProt Q9UF33). The series is described as above. The conditions noted are these: 1 uM compound, read-out: % residual activity class (FIG. 3). The series is classed as biochemical.
The target of another series is p38-beta (Homo sapiens, UniProt Q15759). The series can be described thus: biochemical. The settings on record: read-out: % residual activity class (FIG. 3).
The target of the next series is T1, BRK (Homo sapiens, UniProt Q13882).
T1 construct: purchased ProQinase
Put plainly: single-point (1 uM) inhibition assay (ProQinase Kinase Profiler). It counts as biochemical. The conditions noted are these: 1 uM compound, read-out: % residual activity class (FIG. 3).

Series [2] in a line: human liver microsomal stability. It counts as in vitro ADME.
The target of another series is T2, BTK (Homo sapiens, UniProt Q06187).
T2 construct: purchased ProQinase
The series can be described thus: single-point (1 uM) inhibition assay (ProQinase Kinase Profiler). The settings on record: 1 uM compound, read-out: % residual activity class (FIG. 3). It counts as biochemical.

In a further series the target is T3, LCK (Homo sapiens, UniProt P06239).
T3 construct: purchased ProQinase
Described as above. It counts as biochemical. The settings on record: 1 uM compound, read-out: % residual activity class (FIG. 3).

Another series has as its target WNK2 (Homo sapiens, UniProt Q9Y3S1). The series can be described thus: biochemical. The settings on record: read-out: Residual activity (%) at 1 uM.
The target of a further series is T4, EPHA5 (Homo sapiens, UniProt P54756).
T4 construct: purchased ProQinase
T4 sequence (P54756 25-1037): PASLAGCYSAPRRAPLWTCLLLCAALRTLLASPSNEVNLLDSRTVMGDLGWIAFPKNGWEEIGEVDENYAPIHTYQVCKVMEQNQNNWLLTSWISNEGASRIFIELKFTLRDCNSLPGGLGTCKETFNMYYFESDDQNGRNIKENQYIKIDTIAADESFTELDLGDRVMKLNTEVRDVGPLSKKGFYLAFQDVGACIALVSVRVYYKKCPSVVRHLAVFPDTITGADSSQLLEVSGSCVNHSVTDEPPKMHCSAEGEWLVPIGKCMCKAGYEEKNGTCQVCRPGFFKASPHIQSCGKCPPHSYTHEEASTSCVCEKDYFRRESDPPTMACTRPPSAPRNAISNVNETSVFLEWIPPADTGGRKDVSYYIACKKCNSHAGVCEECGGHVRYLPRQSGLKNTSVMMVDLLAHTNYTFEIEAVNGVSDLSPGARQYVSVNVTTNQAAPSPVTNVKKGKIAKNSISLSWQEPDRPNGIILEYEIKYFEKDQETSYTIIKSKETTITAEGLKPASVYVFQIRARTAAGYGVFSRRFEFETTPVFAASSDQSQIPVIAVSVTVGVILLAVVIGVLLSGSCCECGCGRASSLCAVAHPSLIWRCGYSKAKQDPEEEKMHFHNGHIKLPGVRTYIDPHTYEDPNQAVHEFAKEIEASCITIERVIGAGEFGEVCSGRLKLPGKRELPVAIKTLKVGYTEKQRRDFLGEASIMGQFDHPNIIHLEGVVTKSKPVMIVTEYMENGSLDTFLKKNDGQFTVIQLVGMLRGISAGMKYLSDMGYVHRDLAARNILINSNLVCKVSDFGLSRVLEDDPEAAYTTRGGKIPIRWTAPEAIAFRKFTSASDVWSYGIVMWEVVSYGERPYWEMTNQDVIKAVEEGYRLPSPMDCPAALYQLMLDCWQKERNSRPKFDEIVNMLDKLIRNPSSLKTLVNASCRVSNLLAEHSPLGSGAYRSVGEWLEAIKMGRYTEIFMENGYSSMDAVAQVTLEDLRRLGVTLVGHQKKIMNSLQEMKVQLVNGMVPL
The series can be described thus: single-point (1 uM) inhibition assay (ProQinase Kinase Profiler). The series is classed as biochemical.

Another series concerns the target T5, TGFB-R1 (Homo sapiens, UniProt P36897).
T5 construct: purchased ProQinase
The series is described as above. It counts as biochemical. The settings on record: 1 uM compound, read-out: % residual activity class (FIG. 3).

A further series addresses T6, EPHA2 (Homo sapiens, UniProt P29317).
T6 construct: purchased ProQinase
The description is as above. The series is classed as biochemical.

For a further series, the target named is T7, EPHA1 (Homo sapiens, UniProt P21709).
T7 construct: purchased ProQinase
The series is described as above. The series is classed as biochemical.

A further series has as its target T8, YES (Homo sapiens, UniProt P07947).
T8 construct: purchased ProQinase
The description is as above. The series is classed as biochemical. The conditions noted are these: 1 uM compound, read-out: % residual activity class (FIG. 3).

The next series deals with T9, KIT (Homo sapiens, UniProt P10721).
T9 construct: purchased ProQinase
T9 sequence (P10721 26-976): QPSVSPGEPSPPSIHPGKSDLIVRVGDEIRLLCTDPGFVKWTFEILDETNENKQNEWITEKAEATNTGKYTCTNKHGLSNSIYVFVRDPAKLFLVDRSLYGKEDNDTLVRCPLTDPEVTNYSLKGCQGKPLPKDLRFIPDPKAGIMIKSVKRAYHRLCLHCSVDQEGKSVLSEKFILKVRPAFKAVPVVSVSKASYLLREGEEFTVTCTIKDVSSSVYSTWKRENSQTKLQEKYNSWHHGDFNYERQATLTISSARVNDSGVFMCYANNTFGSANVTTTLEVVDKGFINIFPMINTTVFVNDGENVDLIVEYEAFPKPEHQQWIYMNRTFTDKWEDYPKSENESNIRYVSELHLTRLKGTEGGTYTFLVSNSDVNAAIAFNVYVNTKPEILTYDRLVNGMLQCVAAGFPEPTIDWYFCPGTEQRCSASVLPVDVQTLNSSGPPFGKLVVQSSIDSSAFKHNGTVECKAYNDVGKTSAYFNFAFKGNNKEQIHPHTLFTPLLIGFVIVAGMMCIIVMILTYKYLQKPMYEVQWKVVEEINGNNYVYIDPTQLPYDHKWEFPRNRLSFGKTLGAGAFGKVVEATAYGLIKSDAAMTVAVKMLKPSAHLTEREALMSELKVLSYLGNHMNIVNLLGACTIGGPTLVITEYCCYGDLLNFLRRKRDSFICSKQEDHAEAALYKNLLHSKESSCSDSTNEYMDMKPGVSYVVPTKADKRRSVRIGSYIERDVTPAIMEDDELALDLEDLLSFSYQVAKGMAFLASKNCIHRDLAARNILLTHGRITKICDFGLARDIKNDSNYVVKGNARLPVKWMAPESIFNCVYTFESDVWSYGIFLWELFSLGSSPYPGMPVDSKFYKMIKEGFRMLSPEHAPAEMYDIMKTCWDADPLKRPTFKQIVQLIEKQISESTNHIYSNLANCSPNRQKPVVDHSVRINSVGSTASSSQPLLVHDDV
Described as above. It counts as biochemical.

In another series the target is T10, EPHB4 (Homo sapiens, UniProt P54760).
T10 construct: purchased ProQinase
The series can be described thus: biochemical.

Another series has as its target T11, CSF1-R (Homo sapiens, UniProt P07333).
T11 construct: purchased ProQinase
The series can be described thus: single-point (1 uM) inhibition assay (ProQinase Kinase Profiler). It counts as biochemical. The conditions noted are these: 1 uM compound, read-out: % residual activity class (FIG. 3).

The target in the next series is T12, ERBB4 (Homo sapiens, UniProt Q15303).
T12 construct: purchased ProQinase
The series is described as above. It counts as biochemical. The settings on record: 1 uM compound, read-out: % residual activity class (FIG. 3).

Series [3] can be described thus: mouse liver microsomal stability. It counts as in vitro ADME. Background: Liver microsomes are vesicles of endoplasmic reticulum, rich in cytochrome P450 enzymes.
The next series relates to RAF1. Put plainly: single-point (1 uM) inhibition assay (ProQinase Kinase Profiler). It counts as biochemical. The settings on record: 1 uM compound.
A further series concerns the target T13, B-RAF (Homo sapiens, UniProt P15056).
T13 construct: purchased ProQinase
The description is as above. It counts as biochemical.

The target of the next series is T14, EGF-R (Homo sapiens, UniProt P00533).
T14 construct: purchased ProQinase
Described as above. It counts as biochemical. The conditions noted are these: 1 uM compound, read-out: % residual activity class (FIG. 3).

In the next series the target is T15, BMX (Homo sapiens, UniProt P51813).
T15 construct: purchased ProQinase
The series is described as above. The settings on record: 1 uM compound, read-out: % residual activity class (FIG. 3). It counts as biochemical.

For the next series, the target named is T16, ACV-R2A (Homo sapiens, UniProt P27037).
T16 construct: purchased ProQinase
The description is as above. It counts as biochemical. The settings on record: 1 uM compound, read-out: % residual activity class (FIG. 3).

The next series has as its target T17, ABL1 (Homo sapiens, UniProt P00519).
T17 construct: purchased ProQinase
Put plainly: biochemical. The settings on record: 1 uM compound, read-out: % residual activity class (FIG. 3).

A further series addresses T18, EPHA8 (Homo sapiens, UniProt P29322).
T18 construct: purchased ProQinase
The series can be described thus: single-point (1 uM) inhibition assay (ProQinase Kinase Profiler). The series is classed as biochemical.

The mark [4] stands for this setting: read-out: % residual activity class (FIG. 3).
[5] abbreviates: read-out: Residual activity (%) at 1 uM.

T6 sequence (P29317 24-976): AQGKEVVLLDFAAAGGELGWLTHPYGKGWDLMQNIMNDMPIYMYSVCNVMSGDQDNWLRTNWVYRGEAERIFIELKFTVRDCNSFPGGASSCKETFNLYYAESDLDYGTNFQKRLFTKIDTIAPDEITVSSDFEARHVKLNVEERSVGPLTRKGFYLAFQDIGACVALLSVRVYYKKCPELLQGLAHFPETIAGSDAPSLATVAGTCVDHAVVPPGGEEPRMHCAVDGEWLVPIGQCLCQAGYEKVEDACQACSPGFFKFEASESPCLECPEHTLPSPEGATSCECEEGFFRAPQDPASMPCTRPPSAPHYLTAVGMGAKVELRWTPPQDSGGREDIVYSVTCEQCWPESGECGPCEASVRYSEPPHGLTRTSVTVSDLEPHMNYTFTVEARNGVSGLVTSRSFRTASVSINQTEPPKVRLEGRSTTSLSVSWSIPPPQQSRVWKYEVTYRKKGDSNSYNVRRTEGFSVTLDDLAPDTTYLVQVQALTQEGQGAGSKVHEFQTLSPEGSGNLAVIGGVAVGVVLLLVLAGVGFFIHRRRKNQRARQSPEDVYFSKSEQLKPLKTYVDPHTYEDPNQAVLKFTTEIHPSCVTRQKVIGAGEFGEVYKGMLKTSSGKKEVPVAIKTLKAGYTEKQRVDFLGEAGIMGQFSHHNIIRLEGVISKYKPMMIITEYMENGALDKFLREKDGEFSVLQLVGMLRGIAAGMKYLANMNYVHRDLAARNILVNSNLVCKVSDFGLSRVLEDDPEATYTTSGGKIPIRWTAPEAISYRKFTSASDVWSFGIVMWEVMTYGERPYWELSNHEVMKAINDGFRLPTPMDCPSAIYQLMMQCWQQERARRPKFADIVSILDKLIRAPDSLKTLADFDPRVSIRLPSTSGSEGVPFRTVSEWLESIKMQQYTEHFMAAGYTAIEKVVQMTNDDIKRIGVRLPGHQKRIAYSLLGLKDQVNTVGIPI
T13 sequence (P15056 whole entry): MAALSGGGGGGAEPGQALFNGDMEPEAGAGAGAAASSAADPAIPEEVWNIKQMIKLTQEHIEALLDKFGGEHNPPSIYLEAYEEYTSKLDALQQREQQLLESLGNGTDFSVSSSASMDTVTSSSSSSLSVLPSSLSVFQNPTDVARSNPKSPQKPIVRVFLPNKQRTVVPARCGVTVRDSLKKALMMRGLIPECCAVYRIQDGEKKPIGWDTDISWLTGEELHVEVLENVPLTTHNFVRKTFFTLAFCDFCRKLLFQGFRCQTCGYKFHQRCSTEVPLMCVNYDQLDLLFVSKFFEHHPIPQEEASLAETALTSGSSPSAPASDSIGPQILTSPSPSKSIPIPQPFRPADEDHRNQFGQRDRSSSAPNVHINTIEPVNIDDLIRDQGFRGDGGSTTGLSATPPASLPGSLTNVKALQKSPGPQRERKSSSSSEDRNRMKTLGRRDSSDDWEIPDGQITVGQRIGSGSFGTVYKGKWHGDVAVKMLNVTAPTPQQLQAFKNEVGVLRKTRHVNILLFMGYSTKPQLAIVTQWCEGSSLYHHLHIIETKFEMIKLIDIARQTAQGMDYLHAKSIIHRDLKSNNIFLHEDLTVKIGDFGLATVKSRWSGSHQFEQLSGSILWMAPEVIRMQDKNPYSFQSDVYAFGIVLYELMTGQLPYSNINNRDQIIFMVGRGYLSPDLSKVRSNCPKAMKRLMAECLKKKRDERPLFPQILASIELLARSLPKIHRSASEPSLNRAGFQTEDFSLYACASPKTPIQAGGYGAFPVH

With `Cc1nc(Nc2ncc(C(=O)Nc3c(C)cccc3Cl)s2)cc(N2CCN(CCO)CC2)n1` [Compound A8, N-(2-chloro-6-methylphenyl)-2-((6-(4-(2-hydroxyethyl)piperazin-1-yl)-2-methylpyrimidin-4-yl)amino)thiazole-5-carboxamide, reference compound], the remaining activity at 1 µM at FGF-R2 is 25 to 50%; at ACV-R2B, less than 25%; on ERBB2, 25 to 50%; at EPHA6, 25 to 50%; on p38-beta, less than 25%. For the same compound, in the series on K562 CML cells (10 mg/kg/day), the survival result was “increased survival”. In addition, the “survival / intracranial tumour growth” value in the series on K562 CML cells (similar study, dasatinib 10 and 30 mg/kg/day, imatinib 200 mg/kg/day) is reported as “increased survival”. The cardiac adverse reactions in [1] (258 patients taking dasatinib) is reported as 5.8 % of patients. Besides, in series [1] (258 patients taking dasatinib), the “cardiomyopathy, heart failure congestive, diastolic dysfunction, fatal myocardial infarction, and left ventricular dysfunction” value is recorded as 1.6 % of patients. Besides, in series [1] (all clinical studies), the “other cases of severe haemorrhage” value is listed as 2 % of patients. In addition, the “severe central nervous system (CNS) haemorrhages (including fatalities)” value in [1] (all clinical studies) is reported as 1 % of patients. The “severe gastrointestinal haemorrhage, including fatalities” value in series [1] (all clinical studies) was 4 % of patients. Moreover, in series [1] (clinical trials), the QT prolongation entry is “up to 1 % of CML patients”. For the same compound, the severe fluid retention entry in series [1] (clinical trials) is listed as “up to 10 % of patients”. For the same compound, the “inhibition of hERG currents” value at hERG potassium channel (3 uM) was “about 6%”; at hERG potassium channel (10 uM), roughly 36%. The tumour response entry in the series with KU812 tumours is “curative”.
On to `Cc1nc(Nc2ncc(C(=O)Nc3c(Cl)ccnc3C)s2)cc(N2CCN(CCO)CC2)n1` [Compound B3, N-(4-chloro-2-methylpyridin-3-yl)-2-((6-(4-(2-hydroxyethyl)piperazin-1-yl)-2-methylpyrimidin-4-yl)amino)thiazole-5-carboxamide], for which the remaining activity at 1 µM at BRK is less than 25%; on BTK, less than 25%; at LCK, less than 25%; at WNK2, 100%; at EPHA5 (setting [4]) it was less than 25%; on EPHA5 (setting [5]), 1%. The remaining activity at 1 µM at TGFB-R1 is 25 to 50%; at EPHA2 (setting [4]) it was less than 25%; on EPHA2 (setting [5]), 0%; on EPHA1 (setting [4]), less than 25%; on EPHA1 (setting [5]) it was 3%; at YES, less than 25%. Moreover, the remaining activity at 1 µM at KIT (setting [4]) is less than 25%; at KIT (setting [5]) it was 5%; at EPHB4 (EPHB4, 1 uM compound, read-out: % residual activity class (FIG. 3)), less than 25%; on EPHB4 (setting [5]) it was 1%; on CSF1-R it was less than 25%; at ERBB4 it was less than 25%. The remaining activity at 1 µM at B-RAF (setting [4]) is 25 to 50%; on B-RAF (setting [5]) it was roughly 50%; on EGF-R, 25 to 50%; at BMX, less than 25%; at ACV-R2A, 25 to 50%; at ABL1 it was less than 25%. The remaining activity at 1 µM at EPHA8 (setting [4]) is less than 25%; on EPHA8 (setting [5]), 3%. For the same compound, the results for the Half-life in series [2] and in [3] were 0.967 h and 1.03 h, respectively. The “% residual activity class (FIG. 3)” value in the series with RAF1 was “*** (25% to <50% residual activity)”.

(Values after US12139480B2, “5-thiazolecarboxamide kinase inhibitor and uses thereof” (iOmx Therapeutics AG, priority 2018, dated 2024).)
